Data taken from ChEMBL document CHEMBL3286127, “Aminoadamantanes with persistent in vitro efficacy against H1N1 (2009) influenza A” (J Med Chem, 2014).
Active and inactive are the calls of the source. No cut-off for these calls is given here.

How the values were obtained:
[1] = system: Influenza A virus; test: Antiviral activity against Influenza A virus A/Victoria/3/75(H3N2) infected in MDCK cells expressing wild type M2 after overnight incubation by fluorescence-based miniplaque assay; assay type: functional, organism-based
[2] = system: Influenza A virus; test: Antiviral activity against Influenza A virus A2/Taiwan/1/64(H2N2) infected in MDCK cells expressing wild type M2 after overnight incubation by fluorescence-based miniplaque assay; assay type: functional, organism-based
[3] = system: Influenza B virus; test: Antiviral activity against Influenza B virus B/Russia/69 infected in MDCK cells at 50 uM; assay type: functional, organism-based
[4] = system: MDCK; test: Cytotoxicity against MDCK cells at 50 uM after 18 hrs; assay type: cell-based, Canis lupus familiaris; conditions: dog
[5] = system: MDCK; test: Cytotoxicity against MDCK cells at 5 uM after 18 hrs; assay type: cell-based, Canis lupus familiaris; conditions: dog
[6] = system: HEK293; assay type: cell-based; conditions: Influenza A virus (A/California/07/2009(H1N1)), 10 uM
[7] = system: Bovine parvovirus; test: Antiviral activity against Bovine parvovirus infected in bovine embryonic cells at 50 uM; assay type: functional, cell-based

Row | Compound | EC50 [1] [nM] | EC50 [2] [nM] | Activity [3] | Activity [4] | Activity [5] | Activity [6] [%] | Activity [7]
1 | CC1(N)C2CC3CC(C2)CC1C3 (centres undefined) | 2000 | 500 | inactive | Non-toxic |  |  | 
2 | NC1(Cc2ccccc2)C2CC3CC(C2)CC1C3 (centres undefined) | 18000 | 200 |  | Non-toxic |  |  | 
3 | CCCCCCC1(N)C2CC3CC(C2)CC1C3 (centres undefined) | 1100 | 1500 |  |  | Non-toxic |  | 
4 | CCCCC1(N)C2CC3CC(C2)CC1C3 (centres undefined) | 4000 | 1500 |  | Non-toxic |  |  | 
5 | CC(N)C12CC3CC(CC(C3)C1)C2 (centres undefined) [RIMANTADINE] | 530 | 1600 |  | Non-toxic |  |  | 
6 | CCCC1(N)C2CC3CC(C2)CC1C3 (centres undefined) | 23000 | < 240 | inactive | Non-toxic |  | 63 | inactive
7 | NC12CC3CC(CC(C3)C1)C2 [AMANTADINE] | 2770 | 340 |  | Non-toxic |  |  | 
8 | CCC1(N)C2CC3CC(C2)CC1C3 (centres undefined) | 2000 | 800 | inactive | Non-toxic |  |  | 
9 | NC1(c2ccccc2)C2CC3CC(C2)CC1C3 (centres undefined) | 8000 | 200 |  | Non-toxic |  |  | 
10 | CC(C)CC1(N)C2CC3CC(C2)CC1C3 (centres undefined) | 13000 | 400 |  | Non-toxic |  |  | 
11 | NC1C2CC3CC(C2)CC1C3 (centres undefined) | 3300 | 800 | inactive | Non-toxic |  |  | 
